# Publication PMC10447267, “Assessment of the potential of the MET inhibitor tepotinib to affect the pharmacokinetics of CYP3A4 and P-gp substrates” (Investigational New Drugs, 2023)
# Like-named read-outs stand apart in the source and are kept apart here.
# How the values were obtained:
# [1] = Tepotinib steady-state pharmacokinetics at the clinical dose; settings: human, in vivo, oral, 500 mg
# CYP2C19 = biological target: T1, CYP2C19 (Homo sapiens, UniProt P33261); experiment: CYP2C19 inhibition in pooled human liver microsomes; format: in vitro ADME; settings: for inhibition at 49.5 µM: both sexes, human, pooled human liver microsomes, probe S-mephenytoin (4-hydroxylation)
# T1 construct: pooled mixed-gender human liver microsomes; from tissue; host or cells: pooled mixed-gender human liver microsomes
# T1 sequence (P33261 whole entry): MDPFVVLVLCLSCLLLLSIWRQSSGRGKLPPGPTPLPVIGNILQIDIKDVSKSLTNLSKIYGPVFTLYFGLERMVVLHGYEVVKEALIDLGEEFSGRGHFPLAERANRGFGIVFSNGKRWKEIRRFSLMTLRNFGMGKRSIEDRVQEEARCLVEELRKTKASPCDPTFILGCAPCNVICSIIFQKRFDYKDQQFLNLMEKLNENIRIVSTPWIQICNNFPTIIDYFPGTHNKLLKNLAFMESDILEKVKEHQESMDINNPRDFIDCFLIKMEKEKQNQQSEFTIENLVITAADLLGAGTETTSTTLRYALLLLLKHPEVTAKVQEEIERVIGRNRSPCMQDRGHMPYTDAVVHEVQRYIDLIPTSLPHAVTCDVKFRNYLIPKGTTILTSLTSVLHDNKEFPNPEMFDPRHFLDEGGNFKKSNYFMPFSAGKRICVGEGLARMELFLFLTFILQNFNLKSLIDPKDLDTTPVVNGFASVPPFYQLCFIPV
# Procedure: (§1) The potential of tepotinib and MSC2571109A to inhibit CYP450 enzymes CYP1A2, 2A6, 2B6, 2C8, 2C9, 2C19, 2D6, 2E1, and 3A4/5 in vitro was evaluated using CYP-catalyzed reactions in pooled mixed-gender human liver microsomes using specific substrates and liquid chromatography/tandem mass spectrometry (LC–MS/MS) readouts. […] Testosterone 6β-hydroxylation was assessed in the MSC2571109A study. Assessments of mechanism-based inhibition of the above listed CYP450 enzymes were conducted after pre-incubation of the microsomes with tepotinib or MSC2571109A. A brief summary of the incubation methods, including details of substrates used for the other CYP enzymes (which are not pertinent to this article) are presented in Online Resource 1. The LC–MS/MS-based methods used were consistent with those previously described in the literature.
# [2] = substance not given, taken as tepotinib; ref the healthcare business of Merck KGaA, Darmstadt, Germany, data on file; cited from earlier work
# [3] = human mass balance study; cited from earlier work
# CYP3A4/5 = CYP3A4/5 inhibition in pooled human liver microsomes; format: in vitro ADME; settings: for inhibition at 49.5 µM / IC50: human, microsomes
# Procedure: as §1, with “Testosterone 6β-hydroxylation was assessed in the MSC2571109A study.” left out
# CYP2C9 = biological target: T2, CYP2C9 (Homo sapiens, UniProt P11712); experiment: CYP2C9 inhibition in pooled human liver microsomes; format: in vitro ADME; settings: for inhibition at 49.5 µM: both sexes, human, pooled human liver microsomes, probe diclofenac
# T2 construct: pooled mixed-gender human liver microsomes; from tissue; host or cells: pooled mixed-gender human liver microsomes
# T2 sequence (P11712 whole entry): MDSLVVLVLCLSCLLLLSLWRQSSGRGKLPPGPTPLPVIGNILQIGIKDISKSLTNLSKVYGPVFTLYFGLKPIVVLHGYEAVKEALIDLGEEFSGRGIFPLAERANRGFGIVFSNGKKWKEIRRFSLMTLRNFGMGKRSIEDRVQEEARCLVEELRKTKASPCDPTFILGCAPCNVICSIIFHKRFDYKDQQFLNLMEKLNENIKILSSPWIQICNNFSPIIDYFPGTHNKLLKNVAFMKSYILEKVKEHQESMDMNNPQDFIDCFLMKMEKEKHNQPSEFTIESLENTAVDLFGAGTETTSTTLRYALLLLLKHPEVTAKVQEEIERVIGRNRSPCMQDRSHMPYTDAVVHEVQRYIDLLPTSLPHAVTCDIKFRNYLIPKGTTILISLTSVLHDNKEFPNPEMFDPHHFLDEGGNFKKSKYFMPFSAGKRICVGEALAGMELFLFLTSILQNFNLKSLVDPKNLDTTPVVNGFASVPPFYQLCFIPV
# Procedure: as §1
# P-gp = P-gp (Homo sapiens, UniProt P08183); experiment: Study 2 (NCT03492437): effect of tepotinib on dabigatran pharmacokinetics in healthy participants; format: in vivo; settings: clinical; tepotinib 500 mg QD
# Sequence of P-gp (P08183 whole entry): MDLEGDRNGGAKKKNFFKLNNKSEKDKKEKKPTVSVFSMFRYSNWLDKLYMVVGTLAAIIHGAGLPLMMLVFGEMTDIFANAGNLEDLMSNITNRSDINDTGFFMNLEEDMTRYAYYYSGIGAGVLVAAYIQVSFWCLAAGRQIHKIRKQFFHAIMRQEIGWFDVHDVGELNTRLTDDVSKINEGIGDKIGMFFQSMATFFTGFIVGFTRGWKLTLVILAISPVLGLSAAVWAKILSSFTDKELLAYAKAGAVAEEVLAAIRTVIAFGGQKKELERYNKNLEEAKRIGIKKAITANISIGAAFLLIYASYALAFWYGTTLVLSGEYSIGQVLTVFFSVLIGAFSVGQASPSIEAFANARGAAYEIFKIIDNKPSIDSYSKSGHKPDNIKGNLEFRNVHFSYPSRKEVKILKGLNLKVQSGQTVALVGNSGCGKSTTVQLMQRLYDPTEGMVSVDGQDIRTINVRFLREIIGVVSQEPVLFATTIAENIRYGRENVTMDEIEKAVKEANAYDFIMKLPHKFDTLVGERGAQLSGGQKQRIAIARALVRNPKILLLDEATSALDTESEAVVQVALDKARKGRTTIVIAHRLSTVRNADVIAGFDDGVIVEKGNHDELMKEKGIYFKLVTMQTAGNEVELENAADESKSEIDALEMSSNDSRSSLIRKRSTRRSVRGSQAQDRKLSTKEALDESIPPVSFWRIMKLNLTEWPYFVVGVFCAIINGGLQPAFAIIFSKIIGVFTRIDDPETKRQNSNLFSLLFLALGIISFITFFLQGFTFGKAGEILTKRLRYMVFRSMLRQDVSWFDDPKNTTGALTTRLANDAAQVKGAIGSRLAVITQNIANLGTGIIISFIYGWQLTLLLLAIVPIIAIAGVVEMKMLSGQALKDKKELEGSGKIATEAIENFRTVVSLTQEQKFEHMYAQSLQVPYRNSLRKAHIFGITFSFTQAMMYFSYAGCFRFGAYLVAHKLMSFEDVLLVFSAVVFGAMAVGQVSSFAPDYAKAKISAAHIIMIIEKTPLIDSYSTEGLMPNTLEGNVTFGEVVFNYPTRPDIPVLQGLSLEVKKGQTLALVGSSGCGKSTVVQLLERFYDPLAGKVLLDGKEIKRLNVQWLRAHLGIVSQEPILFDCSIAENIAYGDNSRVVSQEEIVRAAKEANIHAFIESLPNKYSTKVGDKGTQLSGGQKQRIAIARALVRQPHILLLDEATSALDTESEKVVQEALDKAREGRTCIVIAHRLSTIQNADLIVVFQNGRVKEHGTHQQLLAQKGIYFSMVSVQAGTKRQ
# Procedure: Study 1 (NCT03628339) and Study 2 (NCT03492437) were both Phase 1, open-label, single sequence, 2-period studies in 12 and 20 healthy participants, respectively (Fig. 1).
# In Period 2 (Days 4 to 14), participants received 500 mg tepotinib QD on Days 4 to 11. […] Blood samples for trough concentrations of tepotinib were collected on Days 9 and 10. Further blood samples for tepotinib and its metabolites were also collected up to 24 h postdose on Day 10.
# Parameters included maximum plasma concentration (Cmax) and time to reach Cmax (Tmax) taken directly from the observed data. Area under the plasma concentration–time curve (AUC) from time 0 to the last measured concentration (AUC0-t), AUC over the dose interval (AUCtau) and AUC extrapolated to infinity (AUC0-∞) were calculated using the mixed log/linear trapezoidal rule. Terminal elimination half-life (t1/2) was calculated as ln(2)/λz where λz is the terminal rate constant. The primary pharmacokinetic parameters in both studies were Cmax, AUC0-t and AUC0-∞.
# A similar statistical approach was taken for both studies. […] Point estimates and CIs were back-transformed to the original scale.
# CYP3A4 mRNA = CYP3A4 mRNA induction in human hepatocyte cultures; format: in vitro ADME
# Procedure: In vitro studies in primary human hepatocyte cultures were conducted to assess the potential of tepotinib to induce human CYP1A1/2, 2B6 and 3A4/5 activity, the latter based on testosterone 6β-hydroxylation reactions (Online Resource 2). […] The studies included positive (rifampin) and vehicle (DMSO) controls. A negative control (flumazenil) was also included in the mRNA studies. The study designs, test systems and selection of prototypical inducers used in these studies were consistent with PhRMA, FDA and EMA guidelines.
# CYP2B6 = biological target: T3, CYP2B6 (Homo sapiens, UniProt P20813); experiment: CYP2B6 inhibition in pooled human liver microsomes; format: in vitro ADME; settings: Efavirenz 8-hydroxylation; for inhibition at 49.5 µM: both sexes, human, pooled human liver microsomes, probe efavirenz
# T3 construct: pooled mixed-gender human liver microsomes; from tissue; host or cells: pooled mixed-gender human liver microsomes
# T3 sequence (P20813 1-491): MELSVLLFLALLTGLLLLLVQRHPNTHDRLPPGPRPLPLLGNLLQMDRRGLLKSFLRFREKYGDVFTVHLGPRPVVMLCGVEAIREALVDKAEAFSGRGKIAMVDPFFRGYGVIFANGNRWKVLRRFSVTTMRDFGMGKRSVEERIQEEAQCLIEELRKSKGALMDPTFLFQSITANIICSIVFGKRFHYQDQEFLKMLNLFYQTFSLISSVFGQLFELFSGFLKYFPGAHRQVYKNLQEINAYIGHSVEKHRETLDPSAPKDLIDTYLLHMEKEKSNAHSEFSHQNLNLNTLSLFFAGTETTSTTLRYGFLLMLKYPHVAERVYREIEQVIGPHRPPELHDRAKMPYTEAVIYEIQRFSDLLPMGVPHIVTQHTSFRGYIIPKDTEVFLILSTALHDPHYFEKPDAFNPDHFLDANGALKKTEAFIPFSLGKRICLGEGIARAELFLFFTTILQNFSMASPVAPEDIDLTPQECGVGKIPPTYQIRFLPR
# Procedure: as §1
smiles,measurement,setting,value
CN1CCC(COc2cnc(-c3cccc(Cn4nc(-c5cccc(C#N)c5)ccc4=O)c3)nc2)CC1 [tepotinib],Tmax,[1]; Median steady state Tmax,8 h
same,Tmax,"[1]; Steady state Tmax, range",2 to 24 h
same,Potential for time-dependent inhibition,CYP2C19; S-Mephenytoin 4-hydroxylation,Little or No
same,IC50,"CYP2C19; S-Mephenytoin 4-hydroxylation, 30-min preincubation, read-out: Time-dependent inhibition IC50",29 µM
same,inhibition at 49.5 µM,"CYP2C19; S-Mephenytoin 4-hydroxylation, 30-min preincubation, read-out: Time-dependent inhibition, maximum inhibition at 49.5 µM",65%
same,inhibition at 49.5 µM,"CYP2C19; S-Mephenytoin 4-hydroxylation, zero-minute preincubation, read-out: Direct inhibition, maximum inhibition at 49.5 µM",64%
same,IC50,"CYP2C19; human liver microsomes, S-Mephenytoin 4-hydroxylation, zero-minute preincubation, read-out: Direct inhibition IC50",30 µM
same,Ki,"CYP2C19; human liver microsomes, read-out: Ki, CYP2C19-catalyzed probe substrate reaction",≥ 11 µM
same,Geometric mean free Cmax,[2],52.4 nM
same,Share of total circulating radioactivity in plasma,[3],55%
same,Potential for time-dependent inhibition,CYP3A4/5; Midazolam 6β-hydroxylation,Little or No
same,Potential for time-dependent inhibition,CYP3A4/5; Nifedipine oxidation,Little or No
same,Potential for time-dependent inhibition,CYP3A4/5; Testosterone 1’-hydroxylation,Little or No
same,inhibition at 49.5 µM,"CYP3A4/5; both sexes, Midazolam 6β-hydroxylation, 30-min preincubation, read-out: Time-dependent inhibition, maximum inhibition at 49.5 µM",60%
same,IC50,"CYP3A4/5; both sexes, Midazolam 6β-hydroxylation, 30-min preincubation, read-out: Time-dependent inhibition IC50",33 µM
same,inhibition at 49.5 µM,"CYP3A4/5; both sexes, Midazolam 6β-hydroxylation, zero-minute preincubation, read-out: Direct inhibition, maximum inhibition at 49.5 µM",66%
same,inhibition at 49.5 µM,"CYP3A4/5; both sexes, Nifedipine oxidation, 30-min preincubation, read-out: Time-dependent inhibition, maximum inhibition at 49.5 µM",71%
same,IC50,"CYP3A4/5; both sexes, Nifedipine oxidation, 30-min preincubation, read-out: Time-dependent inhibition IC50",25 µM
same,inhibition at 49.5 µM,"CYP3A4/5; both sexes, Nifedipine oxidation, zero-minute preincubation, read-out: Direct inhibition, maximum inhibition at 49.5 µM",64%
same,inhibition at 49.5 µM,"CYP3A4/5; both sexes, Testosterone 1’-hydroxylation, 30-min preincubation, read-out: Time-dependent inhibition, maximum inhibition at 49.5 µM",59%
same,IC50,"CYP3A4/5; both sexes, Testosterone 1’-hydroxylation, 30-min preincubation, read-out: Time-dependent inhibition IC50",37 µM
same,inhibition at 49.5 µM,"CYP3A4/5; both sexes, Testosterone 1’-hydroxylation, zero-minute preincubation, read-out: Direct inhibition, maximum inhibition at 49.5 µM",62%
same,IC50,"CYP3A4/5; both sexes, human liver microsomes, Midazolam 6β-hydroxylation, zero-minute preincubation, read-out: Direct inhibition IC50",25 µM
same,IC50,"CYP3A4/5; both sexes, human liver microsomes, Nifedipine oxidation, zero-minute preincubation, read-out: Direct inhibition IC50",26 µM
same,IC50,"CYP3A4/5; both sexes, human liver microsomes, Testosterone 1’-hydroxylation, zero-minute preincubation, read-out: Direct inhibition IC50",31 µM
same,IC50,"CYP3A4/5; both sexes, in vitro, abstract summary, read-out: IC50, direct or time-dependent CYP3A4/5 inhibition",> 15 µM
same,Ki,"CYP3A4/5; both sexes, human liver microsomes, read-out: Ki, CYP3A4/5-catalyzed probe substrate reactions",≥ 11 µM
same,Direct inhibition of CYP3A4/5 (in words),CYP3A4/5; in vitro,weak direct inhibitors
same,Potential for time-dependent inhibition,CYP2C9; Diclofenac 4-hydroxylation,Little or No
same,IC50,"CYP2C9; Diclofenac 4-hydroxylation, 30-min preincubation, read-out: Time-dependent inhibition IC50",23 µM
same,inhibition at 49.5 µM,"CYP2C9; Diclofenac 4-hydroxylation, 30-min preincubation, read-out: Time-dependent inhibition, maximum inhibition at 49.5 µM",52%
same,inhibition at 49.5 µM,"CYP2C9; Diclofenac 4-hydroxylation, zero-minute preincubation, read-out: Direct inhibition, maximum inhibition at 49.5 µM",58%
same,IC50,"CYP2C9; human liver microsomes, Diclofenac 4-hydroxylation, zero-minute preincubation, read-out: Direct inhibition IC50",27 µM
same,Ki,"CYP2C9; human liver microsomes, direct inhibition, read-out: Ki, CYP2C9-catalyzed probe substrate reaction",≥ 11 µM
same,Inhibition of P-gp-mediated efflux transport of dabigatran etexilate (in words),P-gp,weak inhibitor
same,Increase in CYP3A4 mRNA,"CYP3A4 mRNA; human hepatocyte cultures, maximum (up to), concentration-dependent",up to 7 fold
same,Effect on CYP3A4 mRNA (in words),CYP3A4 mRNA; in vitro,increased CYP3A4 mRNA
same,Potential for time-dependent inhibition,CYP2B6,Little or No
same,IC50,"CYP2B6; 30-min preincubation, read-out: Time-dependent inhibition IC50",44 µM
same,inhibition at 49.5 µM,"CYP2B6; 30-min preincubation, read-out: Time-dependent inhibition, maximum inhibition at 49.5 µM",52%
same,inhibition at 49.5 µM,"CYP2B6; zero-minute preincubation, read-out: Direct inhibition, maximum inhibition at 49.5 µM",34%
same,IC50,"CYP2B6; human liver microsomes, zero-minute preincubation, read-out: Direct inhibition IC50",> 49.5 µM
